US11185527B2, “Methods and compositions relating to steroid hormone receptor-dependent cancers” (Wayne State University, priority 2017, dated 2021)

Columns and labels:
[1] = system: C4-2 cells; experiment: Cell growth assay; format: cell-based
Text: FIG. 16C is a graph showing the effect of 5′-Fluoro-5,3′-Dihydroxyflavone at various concentrations on growth of C4-2 cells.

[2] = Intracellular concentration of compounds by LC-MS/MS (relative stability); format: in vitro ADME; details: media concentration of 2 uM compound
Method: The suspended cells were sonicated to cell lysate, and then 1000 μL ethyl acetate was added. The mixture was vortex-mixed for 15 minutes and centrifuged at 14000 rpm at […] for 15 min. 950 uL of the supernatant was transferred to a new 1.7 mL centrifuge tube, and dried under a steam of nitrogen at room temperature. The sample was then reconstituted with 100 μL 40% acetonitrile, and 5 μL was injected into the LC-MS/MS system. Measured concentrations were normalized to cell protein concentrations.

[3] = system: hormone-independent promoter activation by the splice variant AR-V7; experiment: Gal4-ELK1 reporter activation by AR-V7 in transfected HeLa cells; format: cell-based; details: 10 uM or 20 uM
Method: FIG. 10 is a graph showing results of co-transfection of HeLa cells with the Gal4-TATA-Luc construct and the Gal4-ELK1 fusion protein expression plasmid. The cells were also co-transfected with either the AR-V7 expression plasmid (pLVX-AR-V7) or the corresponding vector plasmid (pLVX). At the time of transfection with AR-V7, the cells were also treated with KCI807 (10 uM or 20 uM) or with the vehicle control. Promoter activity was measured in terms of reporter luciferase activity. In all panels, the error bars represent standard deviation of experimental triplicates. *P<0.05
Hela Cells were plated in a 24-well plate at a concentration of 75,000 cells/well in antibiotic-free red DMEM. The following day the cells were transfected with a total of 300 ng of plasmid DNA/well using Lipofectamine 2000. The cells were incubated for 24h then lysed using luciferase assay lysis buffer 5X from Promega. The luciferase activity of the cell lysates were measured using firefly substrate from Promega and a luminometer (Lumat LB9501, Berthold, Wildbad, Germany).
The relatively higher concentrations of the compound required for this inhibition is likely because AR-V7 was overexpressed in the assay system.

[4] = system: 22Rv1 human CRPC xenograft; experiment: 22Rv1 CRPC tumor xenograft in male SCID mice, tumor growth; details: KCI807 IP 250-300 mg/kg every other day; enzalutamide PO 50-60 mg/Kg daily; from day 3
[5] = Metabolite identification in serum of treated mice by LC-MS/MS; format: in vivo, mouse; details: 250 mg/kg every other day
Text: To identify potential metabolites of KCI807 in mice, serum and liver samples collected from the control (untreated) and KCI807-treated mice were subjected to the LC-MS/MS analysis. Sample preparation and chromatographic separation were the same as that described above. Column eluents of the control and drug-treated samples were surveyed using different scan modes including full scan, product scan, and multiple reaction monitoring scan. […] The […] was operated under the optimized condition as for KCI807, and hypothesized theoretical mass transitions for potential metabolites were monitored (see Tables 3 and 4).
If a chromatographic peak monitored at the theoretical transition(s) corresponding to a particular metabolite was identified in the drug-treated samples but not in the control (untreated) samples, this metabolite was identified as a metabolite of KCI807, see FIG. 20.
Serum from mice that were injected with 250 mg/kg of 5,3′-Dihydroxyflavone every other day for two weeks was analyzed to identify potential metabolites by LCMS using hypothesized mass transitions. […]

[6] = male, SCID, mouse, in vivo, ip, 250 mg/kg, 6 h
[7] = system: 22Rv1 CRPC cells; experiment: Colony growth assay; format: cell-based, human
Method: FIGS. 4A, 4B, 4C, 4D, 4E, 4F, 4G, and 4H relate to inhibition of AR-dependent PC/CRPC clonogenic survival and cell growth by KCI807 and comparison with enzalutamide. FIG. 4A is an image of 22Rv1 cells that were seeded in phenol red-free growth media and treated with the indicated concentration of KCI807, replenishing the treatments every 48h. Colonies were stained with crystal violet 10 days after plating. Treatments were conducted in triplicate. Representative images are shown. FIG. 4B is a graph showing data from replicate colony formation assays shown in FIG. 4A are plotted as a histogram. Each bar represents the average number of colonies for each triplicate treatment. Cells were trypsinized, and 1000 cells/well were seeded in poly-D-lysine coated 6-well plates in phenol red-free regular growth media. The cells were treated with the indicated concentration of KCI807, which was replenished every 48h. The cells were grown at 37° C. in 5% CO2 for 10 days until colonies-grew to the desired size in the untreated control wells. Colonies were fixed with methanol and stained with crystal violet. Each treatment was conducted in triplicate and the number of colonies was counted using the GelCount™ colony counter and a 350 size cutoff.

Row | Compound | growth inhibition of C4-2 cells [1] | intracellular concentration between 1h and 6h [2] | inhibition of promoter activation by AR-V7 [3] | tumor growth inhibition, 22Rv1 xenograft [4] | major metabolites / compounds identified in plasma or serum [5] | major metabolites / compounds identified in plasma or serum ([5]; listed as 5,3′-Dihydroxyflavone) | plasma level of unmetabolized compound (median), Day 11 [6] [nM] | plasma level of unmetabolized compound (median), Day 19 [6] [nM] | colony growth inhibition (in words) ([7]; 22Rv1, beyond 125 nM compound) | IC50 ([7]; Homo sapiens, 22Rv1, 10 days, treatment replenished every 48h, read-out: IC50 of colony growth inhibition) [nM]
1 | O=c1cc(-c2cc(O)cc(F)c2)oc2cccc(O)c12 [5′-fluoro-5,3′-dihydroxyflavone] | inhibited growth |  |  |  |  |  |  |  |  | 
2 | O=c1cc(-c2cccc(O)c2)oc2cccc(O)c12 [KCI807, 5,3′-dihydroxyflavone] |  | unchanged | inhibited | inhibited | glucuronidation and other modifications at the 3′ position | Unmetabolized compound and a single glucuronide metabolite modified at the 3′-OH position | 387 | 70 | virtually completely inhibited | 33.1
